# How the values were obtained:
# Type in all cases: in vivo
# [1] = tested on: Abutilon theophrasti (velvetleaf); assay: Adjuvants for Glyphosate, test plots, visual score
# Description: (§1) In this Example the effect of compounds of the invention as adjuvants for Glyphosate as a herbicide against the species Agropyron repens (couch grass) and Abutilon theophrasti (velvetleaf) using FAE1 as a control adjuvant was tested. Test plots were treated by spraying (spray volume 200 l.ha^−1) at varying doses of glyphosate; 180 and 360 g(a.e.).ha^−1 for A. repens and 250 and 500 g(active).ha^−1 for A. theophrasti and ratios of glyphosate to adjuvant (8:1,4:1 and 2:1 by weight). The effect of the herbicide formulations was assessed by visual comparison with untreated control blocks 6, 13 and 19 days after treatment (DAT), scoring as percentages with 0=no effect and 100=complete kill. The results are set out in Table 2 below
# [2] = tested on: Agropyron repens (couch grass); assay: Adjuvants for Glyphosate, test plots, visual score
# Description: as §1
# [3] = tested on: Bindweed (Convolvulus arvensis); assay: Greenhouse trial of adjuvant with glyphosate; conditions: for % kill: 7 DAT; for % fresh wt 33 days (foliage): 33 DAT
# Source text: (§2) This Example goves the results of greenhouse trials to investigate the adjuvant properties of compound SE2, with a fatty amine ethoxylate (FAE1) for comparitison, used in combination with glyphosate (isopropylamine salt?) as a herbicide against Couchgrass (Agropyron repens) and Bindweed (Convolvulus arvensis). Glyphosate doses of 180, 360 and 540 g(a.e.).ha^−1 were used against A. repens and 540, 810 and 1080 g(a.e.).ha^−1 against C. arvensis. The spray volume was 200 l.ha^−1 and ratios of glyphosate (active ingredient) to adjuvant of 2:0.75 (37.5%); 2:0.5 (25%); 2:0.25 (12.5%) and 2:0.1 (5%) (percentage figres in brackets are by weight adjuvant based on glyphosate a.e.) were tested. Weed kill was visually assessed 7, 14 and 21 days after treatment (DAT) and the % fresh weight of foliage was determined 22 and 33 DAT for A. repens and C. arvensis respectively. The % kill results at 7 DAT are set out in Table 3a and the % fresh weight of foliage determined 22 and 33 DAT is reported in Table 3b below. The % fresh weight of foliage is determined 22 and 33 DAT for A. repens and C. arvensis respectively and the results are included in Table 3b below: […]
# [4] = tested on: Couchgrass (Agropyron repens); assay: Greenhouse trial of adjuvant with glyphosate; conditions: for % kill: 7 DAT; for % fresh wt 22 days (foliage): 22 DAT
# Source text: as §2
# [5] = tested on: mixtures of weeds: Cockspur (Echinochloa crus-galli), Fat-hen (Chenopodium album), Smartweed (Polygonum persicaria); assay: Field trial: adjuvant effect on Glyphosate herbicidal activity on mixed weed plots; conditions: glyphosate 1080 g(a.e.).ha^-1, adjuvant 540 g.ha^-1 (2:1)
# Description: This Example tests the effect of adjuvants on Glyphosate herbicidal activity under field conditions. The herbicide was applied to test plots of weeds at a rate of 1080 g(a.e.).ha^−1 (350 l.ha^−1 of spray containing 3.086 g.l^−1 a.e.) with a weight ratio of active to adjuvant of 2:1=540 g(adjuvant).ha^−1. Spray plots were treated with the herbicide formulations, one of each of four adjuvants of the invention (SE1, SE2, SE3, and SE4) a fatty amine ethoxylate (FAE1) for comparison, or left untreated as controls (no weed control). The spray plots were in a completely randomised block design with 3 replicates of 3×5 m plots. the sprayed plots were sprayed using a compressed-air AZO sprayer at a pressure of 2.5 bar, equipped with Teejet XR80015VS nozzles. During this trial, it rained for about 15 minutes about 2 hours after spraying, giving a good indication of the rainfastness off the formulations tested.
# The test plots used mixtures of the following weeds at the 2 to 4 leaf stage:
# The results of spraying were evaluated by visual comparison with untreated control blocks 12, 20 and 35 days after treatment (DAT), assessing chlorosis (chlor) and growth inhibition (inhib) as percentages with 0=no effect and 100=complete kill as compared with the untreated controls.
substance,measurement,setting,value
1-[Bis-(2-hydroxyethyl)-amino]-2-hydroxypropane-3-(Alc1 15-ethoxylate) [SE2],visual herbicide effect score,"[1]; glyphosate 250 g.ha^-1, ratio 2:1, 6 DAT",25%
same,visual herbicide effect score,"[1]; glyphosate 250 g.ha^-1, ratio 2:1, 13 DAT",32.1%
same,visual herbicide effect score,"[1]; glyphosate 250 g.ha^-1, ratio 2:1, 19 DAT",42.9%
same,visual herbicide effect score,"[1]; glyphosate 250 g.ha^-1, ratio 4:1, 6 DAT",17.9%
same,visual herbicide effect score,"[1]; glyphosate 250 g.ha^-1, ratio 4:1, 13 DAT",28.6%
same,visual herbicide effect score,"[1]; glyphosate 250 g.ha^-1, ratio 4:1, 19 DAT",35.7%
same,visual herbicide effect score,"[1]; glyphosate 250 g.ha^-1, ratio 8:1, 6 DAT",21.4%
same,visual herbicide effect score,"[1]; glyphosate 250 g.ha^-1, ratio 8:1, 13 DAT",28.6%
same,visual herbicide effect score,"[1]; glyphosate 250 g.ha^-1, ratio 8:1, 19 DAT",42.9%
same,visual herbicide effect score,"[1]; glyphosate 500 g.ha^-1, ratio 2:1, 6 DAT",28.6%
same,visual herbicide effect score,"[1]; glyphosate 500 g.ha^-1, ratio 4:1, 6 DAT",28.6%
same,visual herbicide effect score,"[1]; glyphosate 500 g.ha^-1, ratio 8:1, 6 DAT",25%
same,visual herbicide effect score,"[1]; glyphosate 500 g.ha^-1, ratio 8:1, 13 DAT",50%
same,visual herbicide effect score,"[1]; glyphosate 500 g.ha^-1, ratio 8:1, 19 DAT",53.6%
same,visual herbicide effect score,"[2]; glyphosate 180 g.ha^-1, ratio 2:1, 6 DAT",17.9%
same,visual herbicide effect score,"[2]; glyphosate 180 g.ha^-1, ratio 2:1, 13 DAT",46.4%
same,visual herbicide effect score,"[2]; glyphosate 180 g.ha^-1, ratio 2:1, 19 DAT",82.1%
same,visual herbicide effect score,"[2]; glyphosate 180 g.ha^-1, ratio 4:1, 6 DAT",17.9%
same,visual herbicide effect score,"[2]; glyphosate 180 g.ha^-1, ratio 4:1, 13 DAT",39.3%
same,visual herbicide effect score,"[2]; glyphosate 180 g.ha^-1, ratio 4:1, 19 DAT",60%
same,visual herbicide effect score,"[2]; glyphosate 180 g.ha^-1, ratio 8:1, 6 DAT",25%
same,visual herbicide effect score,"[2]; glyphosate 180 g.ha^-1, ratio 8:1, 13 DAT",32.1%
same,visual herbicide effect score,"[2]; glyphosate 180 g.ha^-1, ratio 8:1, 19 DAT",50%
same,visual herbicide effect score,"[2]; glyphosate 360 g.ha^-1, ratio 2:1, 6 DAT",32.1%
same,visual herbicide effect score,"[2]; glyphosate 360 g.ha^-1, ratio 2:1, 13 DAT",60.7%
same,visual herbicide effect score,"[2]; glyphosate 360 g.ha^-1, ratio 2:1, 19 DAT",100%
same,visual herbicide effect score,"[2]; glyphosate 360 g.ha^-1, ratio 4:1, 6 DAT",25%
same,visual herbicide effect score,"[2]; glyphosate 360 g.ha^-1, ratio 4:1, 13 DAT",50%
same,visual herbicide effect score,"[2]; glyphosate 360 g.ha^-1, ratio 4:1, 19 DAT",92.9%
same,visual herbicide effect score,"[2]; glyphosate 360 g.ha^-1, ratio 8:1, 6 DAT",25%
same,visual herbicide effect score,"[2]; glyphosate 360 g.ha^-1, ratio 8:1, 13 DAT",46.4%
same,visual herbicide effect score,"[2]; glyphosate 360 g.ha^-1, ratio 8:1, 19 DAT",78.6%
same,% kill,"[3]; Gly 540, Adj 5% Gly",14.29%
same,% kill,"[3]; Gly 540, Adj 12.5% Gly",14.29%
same,% kill,"[3]; Gly 540, Adj 25% Gly",14.29%
same,% kill,"[3]; Gly 540, Adj 37.5% Gly",14.29%
same,% kill,"[3]; Gly 810, Adj 5% Gly",14.29%
same,% kill,"[3]; Gly 810, Adj 12.5% Gly",17.86%
same,% kill,"[3]; Gly 810, Adj 25% Gly",14.29%
same,% kill,"[3]; Gly 810, Adj 37.5% Gly",14.29%
same,% kill,"[3]; Gly 1080, Adj 5% Gly",14.29%
same,% kill,"[3]; Gly 1080, Adj 12.5% Gly",14.29%
same,% kill,"[3]; Gly 1080, Adj 25% Gly",14.29%
same,% kill,"[3]; Gly 1080, Adj 37.5% Gly",14.29%
same,% fresh wt 33 days (foliage),"[3]; Gly 540, 5 wt % adjuvant",54.61%
same,% fresh wt 33 days (foliage),"[3]; Gly 540, 12.5 wt % adjuvant",54.21%
same,% fresh wt 33 days (foliage),"[3]; Gly 540, 25 wt % adjuvant",54.97%
same,% fresh wt 33 days (foliage),"[3]; Gly 540, 37.5 wt % adjuvant",53.73%
same,% fresh wt 33 days (foliage),"[3]; Gly 810, 5 wt % adjuvant",53.91%
same,% fresh wt 33 days (foliage),"[3]; Gly 810, 12.5 wt % adjuvant",62.03%
same,% fresh wt 33 days (foliage),"[3]; Gly 810, 25 wt % adjuvant",52.01%
same,% fresh wt 33 days (foliage),"[3]; Gly 810, 37.5 wt % adjuvant",55.38%
same,% fresh wt 33 days (foliage),"[3]; Gly 1080, 5 wt % adjuvant",50.55%
same,% fresh wt 33 days (foliage),"[3]; Gly 1080, 12.5 wt % adjuvant",53.29%
same,% fresh wt 33 days (foliage),"[3]; Gly 1080, 25 wt % adjuvant",46.2%
same,% fresh wt 33 days (foliage),"[3]; Gly 1080, 37.5 wt % adjuvant",43.89%
same,% kill,"[4]; Gly 180, Adj 5% Gly",17.86%
same,% kill,"[4]; Gly 180, Adj 12.5% Gly",17.86%
same,% kill,"[4]; Gly 180, Adj 25% Gly",21.43%
same,% kill,"[4]; Gly 180, Adj 37.5% Gly",21.43%
same,% kill,"[4]; Gly 360, Adj 5% Gly",14.29%
same,% kill,"[4]; Gly 360, Adj 12.5% Gly",28.57%
same,% kill,"[4]; Gly 360, Adj 25% Gly",32.14%
same,% kill,"[4]; Gly 360, Adj 37.5% Gly",25%
same,% kill,"[4]; Gly 540, Adj 5% Gly",28.57%
same,% kill,"[4]; Gly 540, Adj 12.5% Gly",25%
same,% kill,"[4]; Gly 540, Adj 25% Gly",35.71%
same,% kill,"[4]; Gly 540, Adj 37.5% Gly",39.29%
same,% fresh wt 22 days (foliage),"[4]; Gly 180, 5 wt % adjuvant",95.49%
same,% fresh wt 22 days (foliage),"[4]; Gly 180, 12.5 wt % adjuvant",59.81%
same,% fresh wt 22 days (foliage),"[4]; Gly 180, 25 wt % adjuvant",48.07%
same,% fresh wt 22 days (foliage),"[4]; Gly 180, 37.5 wt % adjuvant",53.01%
same,% fresh wt 22 days (foliage),"[4]; Gly 360, 5 wt % adjuvant",63.31%
same,% fresh wt 22 days (foliage),"[4]; Gly 360, 12.5 wt % adjuvant",35.66%
same,% fresh wt 22 days (foliage),"[4]; Gly 360, 25 wt % adjuvant",29.69%
same,% fresh wt 22 days (foliage),"[4]; Gly 360, 37.5 wt % adjuvant",40.02%
same,% fresh wt 22 days (foliage),"[4]; Gly 540, 5 wt % adjuvant",23.83%
same,% fresh wt 22 days (foliage),"[4]; Gly 540, 12.5 wt % adjuvant",19.63%
same,% fresh wt 22 days (foliage),"[4]; Gly 540, 25 wt % adjuvant",19.6%
same,% fresh wt 22 days (foliage),"[4]; Gly 540, 37.5 wt % adjuvant",18.36%
same,inhib (%) growth inhibition,[5]; 12 DAT,70%
same,chlor (%) chlorosis,"[5]; 12 DAT, 0=no effect, 100=complete kill",68%
same,chlor (%) chlorosis,[5]; 20 DAT,75%
same,inhib (%) growth inhibition,[5]; 20 DAT,75%
same,chlor (%) chlorosis,[5]; 35 DAT,77%
same,inhib (%) growth inhibition,[5]; 35 DAT,77%

# Reference: patent publication US20050170966A1, “Surfactants and surfactant compositions” (priority 2002, published 2005)
